In patent US7923452B2, “Fungicidal mixtures comprising boscalid and pyrimethanil” (BASF SE, priority 2005, dated 2011):

System: Puccinia recondita
Test: Protective activity against Puccinia recondita on wheat (brown rust of wheat) (Puccrt P1)
Format: in vivo, Puccinia recondita on wheat seedlings cultivar "Kanzler"
Conditions: single active compound, protective spray 1 day before inoculation, efficacy in % of untreated control (Abbot), read-out: Observed activity (%)
Description: The active compounds, separately or jointly, were prepared as a stock solution comprising 25 mg of active compound which was made up to 10 ml using a mixture of acetone and/or dimethyl sulfoxide and the emulsifier Uniperol® EL (wetting agent having an emulsifying and dispersing action based on ethoxylated alkylphenols) in a ratio by volume of solvent/emulsifier of 99:1. The mixture was then made up to 100 ml with water. This stock solution was diluted with the solvent/emulsifier/water mixture described to give the concentration of active compound stated below.
The visually determined percentages of infected leaf areas were converted into efficacies in % of the untreated control:
The efficacy (E) is calculated as follows using Abbot's formula. W=(1−α/β)·100 α corresponds to the fungicidal infection of the treated plants in % and β corresponds to the fungicidal infection of the untreated (control) plants in %
At an efficacy of 0, the infection level of the treated plants corresponds to that of the untreated control plants; at an efficacy of 100, the treated plants are not infected.
The expected efficacies of active compound mixtures were determined using Colby's formula (S. R. Colby, “Calculating synergistic and antagonistic responses of herbicide combinations”, Weeds 15, 20-22 (1967)) and compared with the observed efficacies.
Colby's formula: E=x+y−x−y/100 • E expected efficacy, expressed in % of the untreated control, when using the mixture of the active compounds A and B at the concentrations a and b; • x efficacy, expressed in % of the untreated control, when using the active compound A at the concentration a; • y efficacy, expressed in % of the untreated control, when using the active compound B at the concentration b;
Leaves of potted wheat seedlings of the cultivar “Kanzler” were sprayed to runoff point with an aqueous suspension having the concentration of active compound stated below. […] The extent of the rust fungus development on the leaves was then determined visually.

| SMILES | inhibition at 2 ppm (2 ppm) | inhibition at 4 ppm (4 ppm) | inhibition at 8 ppm (8 ppm) |
| --- | --- | --- | --- |
| Cc1cc(C)nc(Nc2ccccc2)n1 [Pyrimethanil, pyrimethanil] | 0% | 0% | – |
| O=C(Nc1ccccc1-c1ccc(Cl)cc1)c1cccnc1Cl [Boscalid, boscalid] | – | – | 22% |
